# Reference: US20210405025A1, “IDENTIFYING COMPOUNDS FOR TREATING CANCER AND USE THEREOF” (THE UAB RESEARCH FOUNDATION, priority 2018, published 2021)
# System: relapsed AML cells
# Assay: Drug sensitivity assay, 1,536-well, 3-day culture with individual approved drugs at 10 μM, viability by alamarBlue
# Type: cell-based, human
# Conditions: number of relapsed AML cases out of 18 tested with >70% cell death; 10 μM, 3-day culture
# Summary of the method: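 Three-day exposure of primary AML cells to individual drugs in 1,536-well format, viability read as percent live cells. Cells were thawed, cultured overnight, sorted by FACS for viable blasts and plated at 4,000-4,500 cells/5 μL in cytokine-supplemented IMDM/BIT medium.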
row,Compound,#Cases >70% cell death
1,"C=CC(=O)Nc1cc(Nc2nccc(-c3cn(C)c4ccccc34)n2)c(OC)cc1N(C)CCN(C)C [OSIMERTINIB (tagrisso), OSIMERTINIB]",1
2,CCCCCCCCOc1ccccc1C(=O)Nc1ccc(C(=O)OCC[N+](C)(CC)CC)cc1 [OTILONIUM BROMIDE],4
3,COc1c(C)c2c(c(O)c1C/C=C(\C)CCC(=O)O)C(=O)OC2 [MYCOPHENOLIC ACID],5
4,CN1CCc2cccc3c2[C@H]1Cc1ccc(O)c(O)c1-3 [APOMORPHINE],5
5,CNC(=O)c1cc(Oc2ccc(NC(=O)Nc3ccc(Cl)c(C(F)(F)F)c3)cc2)ccn1 [SORAFENIB],9
6,O=S(=O)([O-])CCSSCCS(=O)(=O)[O-].[Na+].[Na+] [DIMESNA],1
7,O=C(CCCN1CCN(c2ccccn2)CC1)c1ccc(F)cc1 [AZAPERONE],1
8,CCC(=O)O[C@]1(C(=O)CCl)[C@@H](C)C[C@H]2[C@@H]3CCC4=CC(=O)C=C[C@]4(C)[C@@]3(F)[C@@H](O)C[C@@]21C [CLOBETASOL PROPIONATE],4
9,COc1ccc2c(c1)CN(C(=O)CCN1CCC(Cc3ccccc3)CC1)CCS2 [K201],4
10,CCc1ccc(CCOc2ccc(CC3SC(=O)NC3=O)cc2)nc1 (centres unmarked) [PIOGLITAZONE],8
11,VINFLUNINE TARTRATE,14
12,COC(=O)Nc1nc2cc(C(=O)c3ccc(F)cc3)ccc2[nH]1 [FLUBENDAZOLE],2
13,CCN(CC)CCN(Cc1ccc(-c2ccc(C(F)(F)F)cc2)cc1)C(=O)Cn1c(SCc2ccc(F)cc2)nc(=O)c2c1CCC2 [DARAPLADIB],18
14,Cc1ccc(S(=O)(=O)NC(=O)NN2CC3CCCC3C2)cc1 (centres unmarked) [GLICLAZIDE],1
15,CCCSc1ccc2nc(NC(=O)OC)[nH]c2c1 [ALBENDAZOLE],9
16,CC1=C(C(=O)OC(C)C)C(c2cccc([N+](=O)[O-])c2)C(C(=O)OC2CN(C(c3ccccc3)c3ccccc3)C2)=C(N)N1 (centres unmarked) [AZELNIDIPINE],5
17,O=C(c1ccc(/C=C/c2n[nH]c3ccccc23)cc1)N1CCNCC1 [KW-2449],9
18,CC[C@]1(O)C[C@H]2CN(CCc3c([nH]c4ccccc34)[C@@](C(=O)OC)(c3cc4c(cc3OC)N(C=O)[C@H]3[C@@](O)(C(=O)OC)[C@H](OC(C)=O)[C@]5(CC)C=CCN6CC[C@]43[C@@H]65)C2)C1 [VINCRISTINE],14
19,Nc1nc(Cl)nc2c1ncn2[C@H]1C[C@H](O)[C@@H](CO)O1 [CLADRIBINE],17
20,CC(C)(C)CC(C)(C)c1ccc(OCCOCC[N+](C)(C)Cc2ccccc2)cc1 [BENZETHONIUM CHLORIDE],16
21,COc1cc(CNC(=O)CCCC/C=C/C(C)C)ccc1O [CAPSAICIN],1
22,C[C@@H]1C[C@H]2[C@@H]3CCC4=CC(=O)C=C[C@]4(C)[C@@]3(Cl)[C@@H](O)C[C@]2(C)[C@@]1(OC(=O)c1ccco1)C(=O)CCl [MOMETASONE FUROATE],2

row,Compound,#Cases >70% cell death
1,IVERMECTIN,18
2,CCC(=O)OCC(=O)[C@@]1(OC(=O)CC)[C@@H](C)C[C@H]2[C@@H]3CCC4=CC(=O)C=C[C@]4(C)[C@@]3(Cl)[C@@H](O)C[C@@]21C [BECLOMETHASONE DIPROPIONATE],1
3,CCC(=O)O[C@]1(C(=O)CCl)[C@@H](C)C[C@H]2[C@@H]3C[C@H](F)C4=CC(=O)C=C[C@]4(C)[C@@]3(F)[C@@H](O)C[C@@]21C [HALOBETASOL PROPIONATE],3
4,COc1ncnc(NS(=O)(=O)c2ccc(N)cc2)c1OC [SULFADOXINE],1
5,CN(c1ncccc1CNc1nc(Nc2ccc3c(c2)CC(=O)N3)ncc1C(F)(F)F)S(C)(=O)=O [PF-562271],18
6,CC(C)C[C@H](NC(=O)[C@H](CCc1ccccc1)NC(=O)CN1CCOCC1)C(=O)N[C@@H](Cc1ccccc1)C(=O)N[C@@H](CC(C)C)C(=O)[C@@]1(C)CO1 [CARFILZOMIB],18
7,N#CCNC(=O)c1ccc(-c2ccnc(Nc3ccc(N4CCOCC4)cc3)n2)cc1 [CYT387],14
8,CCOC(=O)C1=C[C@]2(CC)CCCN3CCc4c(n1c1ccccc41)[C@@H]32 [VINPOCETINE],1
9,CC(=O)O[C@@]12CO[C@@H]1C[C@H](O)[C@@]1(C)C(=O)[C@H](O)C3=C(C)[C@@H](O)C[C@@](O)([C@@H](OC(=O)c4ccccc4)[C@H]21)C3(C)C [10-DAB],1
10,CCN1CCN(Cc2ccc(-c3cc4c(N[C@H](C)c5ccccc5)ncnc4[nH]3)cc2)CC1 [AEE-788],13
11,CCC1=C[C@@H]2CN(C1)Cc1c([nH]c3ccccc13)[C@@](C(=O)OC)(c1cc3c(cc1OC)N(C)[C@H]1[C@@](O)(C(=O)OC)[C@H](OC(C)=O)[C@]4(CC)C=CCN5CC[C@]31[C@@H]54)C2 [VINORELBINE],16
12,CCCn1c(=O)c2[nH]c(C34CC5CC(CC3C5)C4)nc2n(CCC)c1=O [ROLOFYLLINE],1
13,CC[C@H]1OC(=O)[C@H](C)[C@@H](O[C@H]2C[C@@](C)(OC)[C@@H](O)[C@H](C)O2)[C@H](C)[C@@H](O[C@@H]2O[C@H](C)C[C@H](N(C)C)[C@H]2O)[C@](C)(O)C[C@@H](C)CN(C)[C@H](C)[C@@H](O)[C@]1(C)O [AZITHROMYCIN],1
14,NALTRIBEN METHAN[…],1
15,CCC(COC(=O)c1cc(OC)c(OC)c(OC)c1)(c1ccccc1)N(C)C (centres unmarked) [TRIMEBUTINE],1
16,CCCCCCCCCCCC[N+](C)(C)CCOc1ccccc1 [DOMIPHEN BROMIDE],16
17,COc1ccc(S(=O)(=O)Nc2cccnc2Nc2ccc(O)cc2)cc1 [ABT-751],5
18,Cc1nc(Nc2ncc(C(=O)Nc3c(C)cccc3Cl)s2)cc(N2CCN(CCO)CC2)n1 [DASATINIB],6
19,CC(=O)OCC(=O)[C@@]12OC3(CCCC3)O[C@@H]1C[C@H]1[C@@H]3CCC4=CC(=O)C=C[C@]4(C)[C@@]3(F)[C@@H](O)C[C@@]12C [AMCINONIDE],1
20,Nc1ccc2cc3ccc(N)cc3nc2c1 [PROFLAVINE HEMISULFATE],3
21,CCCC1O[C@@H]2C[C@H]3[C@@H]4CCC5=CC(=O)C=C[C@]5(C)[C@H]4[C@@H](O)C[C@]3(C)[C@]2(C(=O)CO)O1 (some centres unmarked) [BUDESONIDE],2
22,CC(=O)CC(c1ccc([N+](=O)[O-])cc1)c1c(O)c2ccccc2oc1=O (centres unmarked) [ACENOCOUMAROL],4

row,Compound,#Cases >70% cell death
1,COCc1c(C(C)C)nc(C(C)C)c(/C=C/[C@@H](O)C[C@@H](O)CC(=O)O)c1-c1ccc(F)cc1 [CERIVASTATIN],17
2,"C=CCNC1=C2C[C@@H](C)C[C@H](OC)[C@H](O)[C@@H](C)/C=C(\C)[C@H](OC(N)=O)[C@@H](OC)/C=C\C=C(/C)C(=O)NC(=CC1=O)C2=O [TANESPIMYCIN (17-AAG), TANESPIMYCIN]",18
3,CCOC(=O)/C=C(C)/C=C/C=C(C)/C=C/c1c(C)cc(OC)c(C)c1C [ETRETINATE],1
4,COCCn1c2c([n+](Cc3cnccn3)c1C)C(=O)c1ccccc1C2=O [YM-155],18
5,N#Cc1cc(CN2CCC(Nc3ncnc4sc(Cl)cc34)CC2)ccc1F [PRX-8066],1
6,Cc1ccc(C(=O)c2cc(O)c(O)c([N+](=O)[O-])c2)cc1 [TOLCAPONE],1
7,CCOc1ccc2nc(S(N)(=O)=O)sc2c1 [ETHOXZOLAMIDE],2
8,C[C@@H]1O[C@@H](O[C@H]2C[C@@H](O)[C@]3(CO)[C@H]4[C@H](O)C[C@]5(C)[C@@H](C6=CC(=O)OC6)CC[C@]5(O)[C@@H]4CC[C@]3(O)C2)[C@H](O)[C@H](O)[C@H]1O [OUABAIN],18
9,COc1c(C)c2c(c(O)c1C/C=C(\C)CCC(=O)OCCN1CCOCC1)C(=O)OC2 [MYCOPHENOLATE MOFETIL],5
10,COc1ccc2c(c1)/C(=C/c1cnc[nH]1)C(=O)N2 [SU-9516],1
11,S=c1nc[nH]c2nc[nH]c12 [MERCAPTOPURINE],10
12,CC(=O)O[C@@]12CO[C@@H]1C[C@H](O)[C@@]1(C)C(=O)[C@H](O)C3=C(C)[C@@H](OC(=O)[C@H](O)[C@@H](NC(=O)OC(C)(C)C)c4ccccc4)C[C@@](O)([C@@H](OC(=O)c4ccccc4)[C@H]21)C3(C)C [DOCETAXEL],5
13,C[C@]12C=CC(=O)C=C1CC[C@@H]1[C@@H]2[C@@H](O)C[C@@]2(C)[C@H]1CC[C@]2(O)C(=O)CO [PREDNISOLONE],1
14,CCc1nn(CCCN2CCN(c3cccc(Cl)c3)CC2)c(=O)n1CCOc1ccccc1 [NEFAZODONE],1
15,CC(C)OC(=O)CCC/C=C\C[C@@H]1[C@@H](CC[C@@H](O)CCc2ccccc2)[C@H](O)C[C@@H]1O [LATANOPROST],1
16,COCCOC(=O)C1=C(C)NC(C)=C(C(=O)OC/C=C/c2ccccc2)C1c1cccc([N+](=O)[O-])c1 (centres unmarked) [CILNIDIPINE],1
17,C[C@H]1O[C@@H](O[C@H]2[C@@H](O)C[C@H](O[C@H]3[C@@H](O)C[C@H](O[C@H]4CC[C@@]5(C)[C@H](CC[C@@H]6[C@@H]5CC[C@]5(C)[C@@H](C7=CC(=O)OC7)CC[C@]65O)C4)O[C@@H]3C)O[C@@H]2C)C[C@H](O)[C@@H]1O [DIGITOXIN],18
18,OCCOCCN1CCN(C2=Nc3ccccc3Sc3ccccc32)CC1 [QUETIAPINE],1
19,Cc1ncc(-c2ccnc(Nc3ccc(S(C)(=O)=O)cc3)n2)n1C(C)C [AZD-5438],17
20,Cn1c(=O)c2c(ncn2CC2OCCO2)n(C)c1=O [DOXOFYLLINE],1
21,CC(=O)OCC(=O)[C@@]12OC(C)(C)O[C@@H]1C[C@H]1[C@@H]3C[C@H](F)C4=CC(=O)C=C[C@]4(C)[C@@]3(F)[C@@H](O)C[C@@]12C [FLUOCINONIDE],1
